Measured values from patent US20260022142A1, “MACROCYCLIC IMMUNOMODULATORS” (Bristol-Myers Squibb Company, priority 2022, published 2026).
pIC50: −log10 of the molar value. Bridge positions count the residues as written; N and C are the ends. Square brackets hold non-standard residues; d marks the D form. Peptide text beside a SMILES is read from it. * marks the point of attachment. ξ: configuration not given here. Bip = N[C@@H](Cc1ccc(-c2ccccc2)cc1)C(=O)O; Phe(3-Me) = Cc1cccc(C[C@H](N)C(=O)O)c1; ξBip = NC(Cc1ccc(-c2ccccc2)cc1)C(=O)O; 4Pal = N[C@@H](Cc1ccncc1)C(=O)O; Cha = N[C@@H](CC1CCCCC1)C(=O)O; Cit = NC(=O)NCCC[C@H](N)C(=O)O; Carboxymethyl = O=C(O)C*; Orn = NCCC[C@H](N)C(=O)O; Aun = NCCCCCCCCCCC(=O)O; Dab = NCC[C@H](N)C(=O)O; Dap = NC[C@H](N)C(=O)O; ξD = NC(CC(=O)O)C(=O)O; AEEA = NCCOCCOCC(=O)O

Target: T1, PD-1/PD-L1 interaction (PE-labeled human PD-L1-Ig binding to Jurkat cell line over-expressing human PD-1) (Homo sapiens, UniProt Q15116)
T1 construct: expressed in transfected cells; host or cells: Jurkat
T1 sequence (Q15116 25-288): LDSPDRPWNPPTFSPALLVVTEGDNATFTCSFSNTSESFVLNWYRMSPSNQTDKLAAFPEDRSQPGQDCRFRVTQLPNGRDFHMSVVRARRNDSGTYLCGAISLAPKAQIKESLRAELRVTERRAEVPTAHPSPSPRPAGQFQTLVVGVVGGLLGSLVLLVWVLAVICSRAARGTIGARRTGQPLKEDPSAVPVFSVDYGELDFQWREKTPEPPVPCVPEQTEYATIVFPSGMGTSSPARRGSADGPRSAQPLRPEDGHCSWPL
Test: Jurkat-PD-1 Cell Binding High-Content Screening Assay (CBA)
Type: cell-based
Conditions: Jurkat cell line over-expressing human PD-1; PE-labeled PD-L1-Ig 20 nM final; read-out: Jurkat hPD1-PDL1 IC50
In short: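 Binding of fluorescent PD-L1-Ig (phycoerythrin on Ig tag, 20 nM final, 1 h) measured by high-content imaging of fixed, Hoechst-counterstained Jurkat-hPD-1 cells. Compound added 2 h at 37° C beforehand, in DMEM with 10% fetal calf serum.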

| Structure (SMILES) | pIC50 |
| --- | --- |
| Cc1cccc(C[C@@H]2NC(=O)[C@H](CC(=O)O)NC(=O)[C@H](Cc3ccncc3)NC(=O)[C@H](Cc3ccc(OCC(=O)O)cc3)NC(=O)CSC[C@@H](C(=O)N[C@@H](CCCNC(=N)N)C(=O)NCCCCCCCCCCC(=O)O)NC(=O)[C@H]([C@@H](C)O)NC(=O)[C@H](C(C)C)NC(=O)[C@H](CC3CCCCC3)NC(=O)[C@H](CCN)NC(=O)[C@@H](CC(C)C)NC(=O)[C@H](CCCN)NC(=O)[C@H](C(C)C)NC(=O)[C@H](Cc3ccc(-c4ccccc4)cc3)NC(=O)[C@H](C(C)C)NC2=O)c1 [Compound 1167] ({CH2CO}-Y(Carboxymethyl)[4Pal]D[Phe(3-Me)]V[Bip]V[Orn][dL][Dab][Cha]VTCR[Aun]-OH; thioether N-14) | 7.10 |
| Cc1cccc(C[C@@H]2NC(=O)[C@H](CC(=O)O)NC(=O)[C@H](Cc3ccncc3)NC(=O)[C@H](Cc3ccc(OCC(=O)O)cc3)NC(=O)CSC[C@@H](C(=O)N[C@@H](Cc3cnc[nH]3)C(=O)NCCCCCCCCCCC(=O)O)NC(=O)[C@H]([C@@H](C)O)NC(=O)[C@H](C(C)C)NC(=O)[C@H](CC3CCCCC3)NC(=O)[C@H](CCN)NC(=O)[C@@H](CC(C)C)NC(=O)[C@H](CCCN)NC(=O)[C@H](C(C)C)NC(=O)[C@H](Cc3ccc(-c4ccccc4)cc3)NC(=O)[C@H](C(C)C)NC2=O)c1 [Compound 1168] ({CH2CO}-Y(Carboxymethyl)[4Pal]D[Phe(3-Me)]V[Bip]V[Orn][dL][Dab][Cha]VTCH[Aun]-OH; thioether N-14) | 6.83 |
| Cc1cccc(C[C@@H]2NC(=O)[C@H](CC(=O)O)NC(=O)[C@H](Cc3ccncc3)NC(=O)[C@H](Cc3ccc(OCC(=O)O)cc3)NC(=O)CSC[C@@H](C(=O)NCCOCCOCC(=O)N[C@@H](CN)C(=O)NCCCCCCCCCCC(=O)O)NC(=O)[C@H]([C@@H](C)O)NC(=O)[C@H](C(C)C)NC(=O)[C@H](CC3CCCCC3)NC(=O)[C@H](CCN)NC(=O)[C@@H](CC(C)C)NC(=O)[C@H](CCCN)NC(=O)[C@H](C(C)C)NC(=O)[C@H](Cc3ccc(-c4ccccc4)cc3)NC(=O)[C@H](C(C)C)NC2=O)c1 [Compound 1169] ({CH2CO}-Y(Carboxymethyl)[4Pal]D[Phe(3-Me)]V[Bip]V[Orn][dL][Dab][Cha]VTC[AEEA][Dap][Aun]-OH; thioether N-14) | 7.54 |
| Cc1cccc(C[C@@H]2NC(=O)[C@H](CC(=O)O)NC(=O)[C@H](Cc3ccncc3)NC(=O)[C@H](Cc3ccc(OCC(=O)O)cc3)NC(=O)CSC[C@@H](C(=O)NCCOCCOCC(=O)N[C@@H](CCN)C(=O)NCCCCCCCCCCC(=O)O)NC(=O)[C@H]([C@@H](C)O)NC(=O)[C@H](C(C)C)NC(=O)[C@H](CC3CCCCC3)NC(=O)[C@H](CCN)NC(=O)[C@@H](CC(C)C)NC(=O)[C@H](CCCN)NC(=O)[C@H](C(C)C)NC(=O)[C@H](Cc3ccc(-c4ccccc4)cc3)NC(=O)[C@H](C(C)C)NC2=O)c1 [Compound 1170] ({CH2CO}-Y(Carboxymethyl)[4Pal]D[Phe(3-Me)]V[Bip]V[Orn][dL][Dab][Cha]VTC[AEEA][Dab][Aun]-OH; thioether N-14) | 7.42 |
| Cc1cccc(C[C@@H]2NC(=O)[C@H](CC(=O)O)NC(=O)[C@H](Cc3ccncc3)NC(=O)[C@H](Cc3ccc(OCC(=O)O)cc3)NC(=O)CSC[C@@H](C(=O)NCCOCCOCC(=O)N[C@@H](CCCN)C(=O)NCCCCCCCCCCC(=O)O)NC(=O)[C@H]([C@@H](C)O)NC(=O)[C@H](C(C)C)NC(=O)[C@H](CC3CCCCC3)NC(=O)[C@H](CCN)NC(=O)[C@@H](CC(C)C)NC(=O)[C@H](CCCN)NC(=O)[C@H](C(C)C)NC(=O)[C@H](Cc3ccc(-c4ccccc4)cc3)NC(=O)[C@H](C(C)C)NC2=O)c1 [Compound 1171] ({CH2CO}-Y(Carboxymethyl)[4Pal]D[Phe(3-Me)]V[Bip]V[Orn][dL][Dab][Cha]VTC[AEEA][Orn][Aun]-OH; thioether N-14) | 7.55 |

Next, values leading:

| pIC50 | Structure (SMILES) |
| --- | --- |
| 7.60 | Cc1cccc(C[C@@H]2NC(=O)[C@H](CC(=O)O)NC(=O)[C@H](Cc3ccncc3)NC(=O)[C@H](Cc3ccc(OCC(=O)O)cc3)NC(=O)CSC[C@@H](C(=O)NCCOCCOCC(=O)N[C@@H](CCCCN)C(=O)NCCCCCCCCCCC(=O)O)NC(=O)[C@H]([C@@H](C)O)NC(=O)[C@H](C(C)C)NC(=O)[C@H](CC3CCCCC3)NC(=O)[C@H](CCN)NC(=O)[C@@H](CC(C)C)NC(=O)[C@H](CCCN)NC(=O)[C@H](C(C)C)NC(=O)[C@H](Cc3ccc(-c4ccccc4)cc3)NC(=O)[C@H](C(C)C)NC2=O)c1 [Compound 1172] ({CH2CO}-Y(Carboxymethyl)[4Pal]D[Phe(3-Me)]V[Bip]V[Orn][dL][Dab][Cha]VTC[AEEA]K[Aun]-OH; thioether N-14) |
| 7.78 | Cc1cccc(C[C@@H]2NC(=O)C(CC(=O)O)NC(=O)[C@H](Cc3ccc(OCC(=O)O)cc3)NC(=O)[C@H](CN)NC(=O)CSC[C@@H](C(=O)N[C@@H](CCCNC(=N)N)C(=O)NCCCCCCCCCCC(=O)O)NC(=O)[C@H]([C@@H](C)O)NC(=O)[C@H](C(C)C)NC(=O)[C@H](CC3CCCCC3)NC(=O)[C@H](CCN)NC(=O)[C@@H](CC(C)C)NC(=O)[C@H](CCCN)NC(=O)[C@H](CCCNC(N)=O)NC(=O)C(Cc3ccc(-c4ccccc4)cc3)NC(=O)[C@H](C(C)C)NC2=O)c1 (stereo partly drawn) [Compound 1174] ({CH2CO}-[Dap]Y(Carboxymethyl)[ξD][Phe(3-Me)]V[ξBip][Cit][Orn][dL][Dab][Cha]VTCR[Aun]-OH; thioether N-14) |
| 7.70 | Cc1cccc(C[C@@H]2NC(=O)C(CC(=O)O)NC(=O)[C@H](Cc3ccc(OCC(=O)O)cc3)NC(=O)[C@H](CN)NC(=O)CSC[C@@H](C(=O)N[C@@H](Cc3cnc[nH]3)C(=O)NCCCCCCCCCCC(=O)O)NC(=O)[C@H]([C@@H](C)O)NC(=O)[C@H](C(C)C)NC(=O)[C@H](CC3CCCCC3)NC(=O)[C@H](CCN)NC(=O)[C@@H](CC(C)C)NC(=O)[C@H](CCCN)NC(=O)[C@H](CCCNC(N)=O)NC(=O)C(Cc3ccc(-c4ccccc4)cc3)NC(=O)[C@H](C(C)C)NC2=O)c1 (stereo partly drawn) [Compound 1175] ({CH2CO}-[Dap]Y(Carboxymethyl)[ξD][Phe(3-Me)]V[ξBip][Cit][Orn][dL][Dab][Cha]VTCH[Aun]-OH; thioether N-14) |
| 8.14 | Cc1cccc(C[C@@H]2NC(=O)C(CC(=O)O)NC(=O)[C@H](Cc3ccc(OCC(=O)O)cc3)NC(=O)[C@H](CN)NC(=O)CSC[C@@H](C(=O)NCCOCCOCC(=O)N[C@@H](CN)C(=O)NCCCCCCCCCCC(=O)O)NC(=O)[C@H]([C@@H](C)O)NC(=O)[C@H](C(C)C)NC(=O)[C@H](CC3CCCCC3)NC(=O)[C@H](CCN)NC(=O)[C@@H](CC(C)C)NC(=O)[C@H](CCCN)NC(=O)[C@H](CCCNC(N)=O)NC(=O)C(Cc3ccc(-c4ccccc4)cc3)NC(=O)[C@H](C(C)C)NC2=O)c1 (stereo partly drawn) [Compound 1176] ({CH2CO}-[Dap]Y(Carboxymethyl)[ξD][Phe(3-Me)]V[ξBip][Cit][Orn][dL][Dab][Cha]VTC[AEEA][Dap][Aun]-OH; thioether N-14) |
| 8.08 | Cc1cccc(C[C@@H]2NC(=O)C(CC(=O)O)NC(=O)[C@H](Cc3ccc(OCC(=O)O)cc3)NC(=O)[C@H](CN)NC(=O)CSC[C@@H](C(=O)NCCOCCOCC(=O)N[C@@H](CCN)C(=O)NCCCCCCCCCCC(=O)O)NC(=O)[C@H]([C@@H](C)O)NC(=O)[C@H](C(C)C)NC(=O)[C@H](CC3CCCCC3)NC(=O)[C@H](CCN)NC(=O)[C@@H](CC(C)C)NC(=O)[C@H](CCCN)NC(=O)[C@H](CCCNC(N)=O)NC(=O)C(Cc3ccc(-c4ccccc4)cc3)NC(=O)[C@H](C(C)C)NC2=O)c1 (stereo partly drawn) [Compound 1177] ({CH2CO}-[Dap]Y(Carboxymethyl)[ξD][Phe(3-Me)]V[ξBip][Cit][Orn][dL][Dab][Cha]VTC[AEEA][Dab][Aun]-OH; thioether N-14) |
